Data on 1 compound can be found in patent publication US4818748A, “Renin inhibitors and aminoacid and aminoaldehyde derivatives” (Bayer Aktiengesellschaft, priority 1986, dated 1989).

Molecules are shown by their SMILES.

In assay [1] the target is T1, endogenous resin from human plasma (Homo sapiens, UniProt P00797).
T1 construct: endogenous resin from human plasma; from tissue; host or cells: pooled human plasma (EDTA)
T1 sequence (P00797 67-406): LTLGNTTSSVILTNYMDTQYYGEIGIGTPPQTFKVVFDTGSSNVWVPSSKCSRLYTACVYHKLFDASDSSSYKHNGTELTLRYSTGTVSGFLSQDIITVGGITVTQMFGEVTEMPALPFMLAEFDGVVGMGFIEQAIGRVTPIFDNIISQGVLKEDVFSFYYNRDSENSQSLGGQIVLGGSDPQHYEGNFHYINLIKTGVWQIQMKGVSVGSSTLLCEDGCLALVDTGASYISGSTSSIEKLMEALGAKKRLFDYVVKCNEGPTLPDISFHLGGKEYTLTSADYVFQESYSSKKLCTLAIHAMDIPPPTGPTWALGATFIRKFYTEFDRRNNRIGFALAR
In words: In vitro test: inhibition of plasma renin activity (angiotensin I formation, radioimmunoassay). In kind it is biochemical. The protocol: The inhibitory strength of the peptides according to the invention against endogenous resin from human plasma is determined in vitro. Pooled human plasma is obtained, with the addition of ethylenediaminetetraacetic acid (EDTA) as an anticoagulant and is stored at -20° C. The plasma renin activity (PRA) is determined as the rate of formation of angiotensin I from endogenous angiotensinogen and renin after incubation at 37° C. The reaction solution contains 150 μl of plasma, 3 μl of 6.6% strength 8-hydroxyquinoline sulphate solution, 3 μl of 10% strength dimercaprol solution and 144 μl of sodium phosphate buffer (0.2M; 0.1% of EDTA; pH 5.6) with or without the substances according to the invention in various concentrations. The angiotensin I formed per unit time is determined by radioimmunoassay (Sorin Biomedica, Italy). The percentage inhibition of the plasma renin activity is calculated by comparison of the amount of angiotensin I formed here with or without the substances according to the invention.

The subject of assay [2] is spontaneously hypertensive rats. The assay can be described thus: In vivo test: systolic blood pressure of conscious spontaneously hypertensive rats, indirect tail-cuff measurement. Details: species or system rat. The note with it: conscious SHR; for systolic blood pressure: oral dose of 100 mg/kg. The source says:
From the current state of the art, it was not to be expected that the compounds according to the invention have a hypotensive action when administered orally. […] [See Table 1].
The blood pressure of the conscious animals is thereby measured by the customary indirect measurement method on the tail, using an inflatable occlusion cuff and an infra-tone pulse recorder [compare H. Breuninger: Methoden zur unblutigen Messung des Blutdrucks an Kleintieren (Methods of bloodless measurement of the blood pressure on small animals), Arzneimittleforschung 6, 222-225 (1956)]. The substance is administered as a suspension in 1% strength Tylose by means of a stomach tube. The systolic blood pressure is measured before and 1, 2, 4 and 6 hours after administration.

For assay [3], the system named is sodium-deficient spontaneously hypertensive rats. In words: Mean arterial pressure in anaesthetized sodium-deficient spontaneously hypertensive rats. In kind it is in vivo, rat. The settings on record: intragastral administration; sodium-deficient SHR (furosemide in drinking water 14 days), anaesthetized with Inactin.

On to `CC[C@H](C)[C@H](NC(=O)C[C@H](O)[C@H](Cc1ccc([N+](=O)[O-])cc1)NC(=O)[C@H](Cc1c[nH]cn1)NC(=O)[C@H](Cc1ccccc1)NC(=O)OC(C)(C)C)C(=O)OC` [Example 12, N-tert.-Butoxycarbonyl-phenylalanyl-L-histidyl-4S-amino-3S-hydroxy-5-(4-nitrophenyl)pentanoyl-L-isoleucine methyl ester], for which the “inhibition of renin activity in vitro (in words)” value in assay [1] is on record as “inhibit the renin activity in vitro”. Besides, the systolic blood pressure in assay [2] (0 hours (before administration)) is 165.0 mm Hg; in assay [2] (1 hour after administration) it was 163.1 mm Hg; in assay [2] (2 hours after administration), 161.8 mm Hg; in assay [2] (4 hours after administration) it was 151.8 mm Hg; in assay [2] (6 hours after administration), 148.5 mm Hg. Further, the “antihypertensive action (in words)” value in assay [2] (oral administration of 100 mg/kg) is “antihypertensive action is observed”. Also, the “mean arterial pressure (in words)” value in assay [3] is “reduces the mean arterial pressure”.
